Reference: patent EP4722207A1, “OXOISOINDOLINYL-SUBSTITUTED TETRAHYDROPYRIMIDINEDIONE DERIVATIVE AND USE THEREOF” (Gluetacs Therapeutics (Shanghai) Co., Ltd., priority 2023, dated 2024)

What was measured:
Assay type in all cases: cell-based
[1] = molecular target: T1, CK1α (Homo sapiens, UniProt P48729+Q96SW2); test: Western-blot assay, substrate protein degradation in hPBMCs: CK1α; conditions: for substrate protein remaining % CK1α: 24 hours of compound treatment, 50 nM and 500 nM; for CK1α substrate protein remaining %: compounds at 50 nM and 500 nM, 24 hours
T1 construct: effects of the compounds of the present disclosure on the expression of target proteins in cells; endogenous in cells; host or cells: human PBMCs (hPBMCs)

[2] = molecular target: T2, IKZF2 (Homo sapiens, UniProt Q96SW2+Q9UKS7); test: Western-blot assay, substrate protein degradation in hPBMCs: IKZF2; conditions: for substrate protein remaining % IKZF2: 24 hours of compound treatment, 50 nM and 500 nM; for IKZF2 substrate protein remaining %: compounds at 50 nM and 500 nM, 24 hours
T2 construct: effects of the compounds of the present disclosure on the expression of target proteins in cells; endogenous in cells; host or cells: human PBMCs (hPBMCs)

[3] = molecular target: T3, IKZF1 (Homo sapiens, UniProt Q13422+Q96SW2); test: Western-blot assay, substrate protein degradation in hPBMCs: IKZF1; conditions: for substrate protein remaining % IKZF1: 24 hours of compound treatment, 50 nM and 500 nM; for IKZF1 substrate protein remaining %: compounds at 50 nM and 500 nM, 24 hours
T3 construct: effects of the compounds of the present disclosure on the expression of target proteins in cells; endogenous in cells; host or cells: human PBMCs (hPBMCs)

[4] = molecular target: T4, WEE1 (Homo sapiens, UniProt P30291+Q96SW2); test: Western-blot assay, substrate protein degradation in hPBMCs: WEE1; conditions: for substrate protein remaining % WEE1: 24 hours of compound treatment, 50 nM and 500 nM; for WEE1 substrate protein remaining %: compounds at 50 nM and 500 nM, 24 hours
T4 construct: effects of the compounds of the present disclosure on the expression of target proteins in cells; endogenous in cells; host or cells: human PBMCs (hPBMCs)

[5] = molecular target: T5, IKZF3 (Homo sapiens, UniProt Q96SW2+Q9UKT9); test: Western-blot assay, substrate protein degradation in hPBMCs: IKZF3; conditions: for substrate protein remaining % IKZF3: 24 hours of compound treatment, 50 nM and 500 nM; for IKZF3 substrate protein remaining %: compounds at 50 nM and 500 nM, 24 hours
T5 construct: effects of the compounds of the present disclosure on the expression of target proteins in cells; endogenous in cells; host or cells: human PBMCs (hPBMCs)

[6] = molecular target: T6, GSPT1 (Homo sapiens, UniProt P15170+Q96SW2); test: Western-blot assay, substrate protein degradation in hPBMCs: GSPT1; conditions: for substrate protein remaining % GSPT1: 24 hours of compound treatment, 50 nM and 500 nM; for GSPT1 substrate protein remaining %: compounds at 50 nM and 500 nM, 24 hours
T6 construct: effects of the compounds of the present disclosure on the expression of target proteins in cells; endogenous in cells; host or cells: human PBMCs (hPBMCs)
T6 sequence (P15170 whole entry): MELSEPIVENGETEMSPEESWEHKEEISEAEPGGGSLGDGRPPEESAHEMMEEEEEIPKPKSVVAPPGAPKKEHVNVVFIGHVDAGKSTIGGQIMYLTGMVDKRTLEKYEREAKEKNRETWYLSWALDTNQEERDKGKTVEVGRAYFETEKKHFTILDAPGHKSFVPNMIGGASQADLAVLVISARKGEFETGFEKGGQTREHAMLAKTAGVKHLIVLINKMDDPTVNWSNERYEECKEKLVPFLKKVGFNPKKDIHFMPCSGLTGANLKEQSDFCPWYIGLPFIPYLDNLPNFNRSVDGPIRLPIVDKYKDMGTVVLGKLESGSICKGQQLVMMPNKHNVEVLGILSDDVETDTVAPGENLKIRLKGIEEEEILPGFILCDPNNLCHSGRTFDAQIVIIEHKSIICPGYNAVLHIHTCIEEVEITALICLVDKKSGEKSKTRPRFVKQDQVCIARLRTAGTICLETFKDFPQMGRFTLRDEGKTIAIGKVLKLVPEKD
T6 sequence (Q96SW2 whole entry): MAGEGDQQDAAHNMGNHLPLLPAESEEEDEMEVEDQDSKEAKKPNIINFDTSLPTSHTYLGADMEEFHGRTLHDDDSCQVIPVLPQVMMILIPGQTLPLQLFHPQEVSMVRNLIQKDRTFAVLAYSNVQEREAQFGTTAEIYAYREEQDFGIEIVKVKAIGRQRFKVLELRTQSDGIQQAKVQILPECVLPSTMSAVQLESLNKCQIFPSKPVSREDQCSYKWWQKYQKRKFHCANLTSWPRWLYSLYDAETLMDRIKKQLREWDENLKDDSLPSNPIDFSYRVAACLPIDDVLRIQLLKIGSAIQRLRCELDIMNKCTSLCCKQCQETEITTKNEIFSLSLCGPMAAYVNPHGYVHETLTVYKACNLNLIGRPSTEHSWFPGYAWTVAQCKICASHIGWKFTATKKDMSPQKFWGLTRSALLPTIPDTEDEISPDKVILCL
T6 sequence (Q16531 whole entry partner): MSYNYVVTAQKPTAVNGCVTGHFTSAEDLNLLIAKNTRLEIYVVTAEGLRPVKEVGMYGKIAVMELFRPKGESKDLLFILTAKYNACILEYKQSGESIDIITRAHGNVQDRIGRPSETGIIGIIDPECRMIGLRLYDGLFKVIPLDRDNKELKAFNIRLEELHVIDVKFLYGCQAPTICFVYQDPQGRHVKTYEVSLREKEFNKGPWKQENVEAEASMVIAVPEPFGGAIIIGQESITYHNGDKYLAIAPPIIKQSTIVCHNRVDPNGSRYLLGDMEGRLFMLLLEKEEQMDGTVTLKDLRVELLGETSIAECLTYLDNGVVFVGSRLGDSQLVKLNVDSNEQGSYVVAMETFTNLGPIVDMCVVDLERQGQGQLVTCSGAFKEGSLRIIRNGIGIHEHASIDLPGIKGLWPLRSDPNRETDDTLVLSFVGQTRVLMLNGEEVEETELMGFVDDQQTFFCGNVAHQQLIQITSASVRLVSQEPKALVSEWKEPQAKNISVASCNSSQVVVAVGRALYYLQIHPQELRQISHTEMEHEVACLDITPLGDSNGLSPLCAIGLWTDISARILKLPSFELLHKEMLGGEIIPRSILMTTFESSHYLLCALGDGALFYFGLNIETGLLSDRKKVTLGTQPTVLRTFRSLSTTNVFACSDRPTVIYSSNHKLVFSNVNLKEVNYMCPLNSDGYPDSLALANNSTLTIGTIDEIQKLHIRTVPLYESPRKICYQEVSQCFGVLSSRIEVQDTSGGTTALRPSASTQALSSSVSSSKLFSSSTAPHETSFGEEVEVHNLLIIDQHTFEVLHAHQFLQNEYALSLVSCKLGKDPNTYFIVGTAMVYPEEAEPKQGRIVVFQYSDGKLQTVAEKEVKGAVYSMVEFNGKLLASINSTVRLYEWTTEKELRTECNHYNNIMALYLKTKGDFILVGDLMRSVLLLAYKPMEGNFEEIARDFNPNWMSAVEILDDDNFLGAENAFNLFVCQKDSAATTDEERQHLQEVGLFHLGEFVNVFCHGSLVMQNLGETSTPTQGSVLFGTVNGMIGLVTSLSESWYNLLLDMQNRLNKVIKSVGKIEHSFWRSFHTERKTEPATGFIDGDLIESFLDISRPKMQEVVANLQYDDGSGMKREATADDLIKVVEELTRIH

T3 sequence (Q13422 whole entry): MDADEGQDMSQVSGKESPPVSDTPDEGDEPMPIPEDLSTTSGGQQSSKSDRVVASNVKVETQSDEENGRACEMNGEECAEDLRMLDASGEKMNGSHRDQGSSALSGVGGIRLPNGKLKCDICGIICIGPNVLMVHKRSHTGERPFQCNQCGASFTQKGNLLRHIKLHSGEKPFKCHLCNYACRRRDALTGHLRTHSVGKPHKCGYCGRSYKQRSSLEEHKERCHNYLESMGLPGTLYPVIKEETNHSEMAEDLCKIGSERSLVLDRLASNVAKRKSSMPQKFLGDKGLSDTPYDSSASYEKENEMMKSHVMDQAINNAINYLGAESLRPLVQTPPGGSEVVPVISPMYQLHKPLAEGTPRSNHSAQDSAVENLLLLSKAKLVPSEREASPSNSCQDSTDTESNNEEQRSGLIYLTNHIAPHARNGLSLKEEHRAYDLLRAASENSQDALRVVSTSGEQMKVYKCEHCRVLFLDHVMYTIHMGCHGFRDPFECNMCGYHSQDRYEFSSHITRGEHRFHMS
T3 sequence (Q96SW2 whole entry): as the sequence (Q96SW2 whole entry) above
T3 sequence (Q16531 whole entry partner): as the sequence (Q16531 whole entry partner) above
T1 sequence (P48729 whole entry): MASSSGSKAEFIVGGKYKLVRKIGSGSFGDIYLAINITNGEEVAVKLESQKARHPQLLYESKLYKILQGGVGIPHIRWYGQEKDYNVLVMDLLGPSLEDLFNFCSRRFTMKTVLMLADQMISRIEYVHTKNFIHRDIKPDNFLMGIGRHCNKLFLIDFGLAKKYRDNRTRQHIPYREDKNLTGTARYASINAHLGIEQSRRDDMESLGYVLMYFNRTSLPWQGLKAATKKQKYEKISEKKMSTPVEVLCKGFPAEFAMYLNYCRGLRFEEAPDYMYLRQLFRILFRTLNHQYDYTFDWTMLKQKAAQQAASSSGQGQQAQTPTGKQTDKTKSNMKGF
T1 sequence (Q96SW2 whole entry): as the sequence (Q96SW2 whole entry) above
T1 sequence (Q16531 whole entry partner): as the sequence (Q16531 whole entry partner) above
T2 sequence (Q9UKS7 whole entry): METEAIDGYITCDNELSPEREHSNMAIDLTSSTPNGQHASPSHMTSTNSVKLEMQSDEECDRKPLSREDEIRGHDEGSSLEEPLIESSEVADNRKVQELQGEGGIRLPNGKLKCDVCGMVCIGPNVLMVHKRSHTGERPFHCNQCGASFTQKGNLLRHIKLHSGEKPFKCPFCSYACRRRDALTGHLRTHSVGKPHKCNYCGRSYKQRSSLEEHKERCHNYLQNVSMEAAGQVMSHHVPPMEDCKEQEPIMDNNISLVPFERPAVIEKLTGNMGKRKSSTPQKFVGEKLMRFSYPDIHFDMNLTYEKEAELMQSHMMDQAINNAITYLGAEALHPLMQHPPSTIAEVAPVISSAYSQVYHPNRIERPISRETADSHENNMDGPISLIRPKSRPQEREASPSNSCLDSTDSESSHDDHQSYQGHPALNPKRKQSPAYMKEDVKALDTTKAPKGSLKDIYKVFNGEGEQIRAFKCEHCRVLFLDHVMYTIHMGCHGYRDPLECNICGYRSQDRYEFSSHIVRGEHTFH
T2 sequence (Q96SW2 whole entry): as the sequence (Q96SW2 whole entry) above
T2 sequence (Q16531 whole entry partner): as the sequence (Q16531 whole entry partner) above
T5 sequence (Q9UKT9 whole entry): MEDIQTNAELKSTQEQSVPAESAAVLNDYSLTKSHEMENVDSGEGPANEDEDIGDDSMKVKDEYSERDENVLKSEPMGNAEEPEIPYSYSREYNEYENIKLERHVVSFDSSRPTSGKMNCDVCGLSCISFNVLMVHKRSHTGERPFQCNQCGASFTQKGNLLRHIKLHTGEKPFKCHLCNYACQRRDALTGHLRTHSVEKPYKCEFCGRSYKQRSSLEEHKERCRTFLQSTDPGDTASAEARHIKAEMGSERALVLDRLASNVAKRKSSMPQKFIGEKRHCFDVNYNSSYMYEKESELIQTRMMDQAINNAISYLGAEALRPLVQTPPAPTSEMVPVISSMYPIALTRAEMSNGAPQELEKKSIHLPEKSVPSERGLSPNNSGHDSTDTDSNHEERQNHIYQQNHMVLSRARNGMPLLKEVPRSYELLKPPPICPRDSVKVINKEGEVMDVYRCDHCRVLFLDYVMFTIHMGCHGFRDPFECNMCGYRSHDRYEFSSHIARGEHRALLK
T5 sequence (Q96SW2 whole entry): as the sequence (Q96SW2 whole entry) above
T5 sequence (Q16531 whole entry partner): as the sequence (Q16531 whole entry partner) above

SMILES: O=C1CCN(N2C(=O)c3ccc(CN4CC=C(c5ccnc(F)c5F)CC4)cc3C2=O)C(=O)N1 [GT-07494, 5-((2',3'-difluoro-3,6-dihydro-[4,4'-bipyridin]-1(2H)-yl)methyl)-2-(2,4-dioxotetrahydropyrimidin-1(2H)-yl)isoindoline-1,3-dione]
- substrate protein remaining % CK1α [1]: A (0% ≤ substrate protein remaining % ≤ 80%)
- substrate protein remaining % IKZF2 [2]: B (80%< substrate protein remaining %≤ 100%)
- substrate protein remaining % IKZF1 [3]: B (80%< substrate protein remaining %≤ 100%)
- substrate protein remaining % WEE1 [4]: A (0% ≤ substrate protein remaining % ≤ 80%)
- substrate protein remaining % IKZF3 [5]: B (80%< substrate protein remaining %≤ 100%)
- substrate protein remaining % GSPT1 [6]: B (80%< substrate protein remaining %≤ 100%)

SMILES: Cc1ccsc1C1CCN(Cc2ccc3c(c2)CN(N2CCC(=O)NC2=O)C3=O)CC1 [GT-07305, 1-(5-((4-(3-methylthiophen-2-yl)piperidin-1-yl)methyl)-1-oxoisoindolin-2-yl)dihydropyrimidine-2,4(1H,3H)-dione]
- substrate protein remaining % CK1α [1]: B (80%< substrate protein remaining %≤ 100%)
- substrate protein remaining % IKZF2 [2]: A (0% ≤ substrate protein remaining % ≤ 80%)
- substrate protein remaining % IKZF1 [3]: B (80%< substrate protein remaining %≤ 100%)
- substrate protein remaining % WEE1 [4]: B (80%< substrate protein remaining %≤ 100%)
- substrate protein remaining % IKZF3 [5]: A (0% ≤ substrate protein remaining % ≤ 80%)
- substrate protein remaining % GSPT1 [6]: A (0% ≤ substrate protein remaining % ≤ 80%)

SMILES: O=C1CCN(N2Cc3cc(CN4C[C@H]5C[C@@H]4CN5c4cccc(Cl)c4Cl)ccc3C2=O)C(=O)N1 [GT-07427, 1-(5-(((1R,4R)-5-(2,3-dichlorophenyl)-2,5-diazabicyclo[2.2.1]heptan-2-yl)methyl)-1-oxoisoindolin-2-yl)dihydropyrimidine-2,4(1H,3H)-dione]
- substrate protein remaining % CK1α [1]: A (0% ≤ substrate protein remaining % ≤ 80%)
- substrate protein remaining % IKZF2 [2]: B (80%< substrate protein remaining %≤ 100%)
- substrate protein remaining % IKZF1 [3]: A (0% ≤ substrate protein remaining % ≤ 80%)
- substrate protein remaining % WEE1 [4]: A (0% ≤ substrate protein remaining % ≤ 80%)
- substrate protein remaining % IKZF3 [5]: B (80%< substrate protein remaining %≤ 100%)
- substrate protein remaining % GSPT1 [6]: A (0% ≤ substrate protein remaining % ≤ 80%)

SMILES: O=C1CCN(N2Cc3cc(CN4CCN(c5ccc(F)cn5)CC4)ccc3C2=O)C(=O)N1 [GT-05131, 1-(5-((4-(5-fluoropyridin-2-yl)piperazin-1-yl)methyl)-1-oxoisoindolin-2-yl)dihydropyrimidine-2,4(1H,3H)-dione]
- CK1α substrate protein remaining % [1]: A ("A" is defined as 0% ≤ substrate protein remaining % ≤ 80%)
- IKZF2 substrate protein remaining % [2]: A ("A" is defined as 0% ≤ substrate protein remaining % ≤ 80%)
- IKZF1 substrate protein remaining % [3]: A ("A" is defined as 0% ≤ substrate protein remaining % ≤ 80%)
- WEE1 substrate protein remaining % [4]: A ("A" is defined as 0% ≤ substrate protein remaining % ≤ 80%)
- IKZF3 substrate protein remaining % [5]: A ("A" is defined as 0% ≤ substrate protein remaining % ≤ 80%)
- GSPT1 substrate protein remaining % [6]: A ("A" is defined as 0% ≤ substrate protein remaining % ≤ 80%)

SMILES: O=C1CCN(N2C(=O)c3ccc(CN4CCC(c5ccccc5C(F)(F)F)CC4)cc3C2=O)C(=O)N1 [GT-06879, 2-(2,4-dioxotetrahydropyrimidin-1(2H)-yl)-5-((4-(2-(trifluoromethyl)phenyl)piperidin-1-yl)methyl)isoindoline-1,3-dione]
- CK1α substrate protein remaining % [1]: B ("B" is defined as 80%< substrate protein remaining %≤ 100%)
- IKZF2 substrate protein remaining % [2]: B ("B" is defined as 80%< substrate protein remaining %≤ 100%)
- IKZF1 substrate protein remaining % [3]: B ("B" is defined as 80%< substrate protein remaining %≤ 100%)
- WEE1 substrate protein remaining % [4]: B ("B" is defined as 80%< substrate protein remaining %≤ 100%)
- IKZF3 substrate protein remaining % [5]: B ("B" is defined as 80%< substrate protein remaining %≤ 100%)
- GSPT1 substrate protein remaining % [6]: A ("A" is defined as 0% ≤ substrate protein remaining % ≤ 80%)

SMILES: O=C1CCN(N2Cc3cc(CN4CCN(c5c(Cl)cncc5Cl)CC4)ccc3C2=O)C(=O)N1 [GT-07032, 1-(5-((4-(3,5-dichloropyridin-4-yl)piperazin-1-yl)methyl)-1-oxoisoindolin-2-yl)dihydropyrimidine-2,4(1H,3H)-dione]
- CK1α substrate protein remaining % [1]: B ("B" is defined as 80%< substrate protein remaining %≤ 100%)
- IKZF2 substrate protein remaining % [2]: B ("B" is defined as 80%< substrate protein remaining %≤ 100%)
- IKZF1 substrate protein remaining % [3]: B ("B" is defined as 80%< substrate protein remaining %≤ 100%)
- WEE1 substrate protein remaining % [4]: B ("B" is defined as 80%< substrate protein remaining %≤ 100%)
- IKZF3 substrate protein remaining % [5]: B ("B" is defined as 80%< substrate protein remaining %≤ 100%)
- GSPT1 substrate protein remaining % [6]: A ("A" is defined as 0% ≤ substrate protein remaining % ≤ 80%)

SMILES: O=C1CCN(N2Cc3cc(CN4CCC(c5cccc6c(F)cccc56)CC4)ccc3C2=O)C(=O)N1 [GT-07589, 1-(5-((4-(5-fluoronaphthalen-1-yl)piperidin-1-yl)methyl)-1-oxoisoindolin-2-yl)dihydropyrimidine-2,4(1H,3H)-dione]
- substrate protein remaining % CK1α [1]: B (80%< substrate protein remaining %≤ 100%)
- substrate protein remaining % IKZF2 [2]: B (80%< substrate protein remaining %≤ 100%)
- substrate protein remaining % IKZF1 [3]: B (80%< substrate protein remaining %≤ 100%)
- substrate protein remaining % WEE1 [4]: B (80%< substrate protein remaining %≤ 100%)
- substrate protein remaining % IKZF3 [5]: B (80%< substrate protein remaining %≤ 100%)
- substrate protein remaining % GSPT1 [6]: A (0% ≤ substrate protein remaining % ≤ 80%)

SMILES: O=C1CCN(N2C(=O)c3ccc(CN4CCC(c5cccc6cnccc56)CC4)cc3C2=O)C(=O)N1 [GT-07688, 2-(2,4-dioxotetrahydropyrimidin-1(2H)-yl)-5-((4-(isoquinolin-5-yl)piperidin-1-yl)methyl)isoindoline-1,3-dione]
- substrate protein remaining % CK1α [1]: B (80%< substrate protein remaining %≤ 100%)
- substrate protein remaining % IKZF2 [2]: B (80%< substrate protein remaining %≤ 100%)
- substrate protein remaining % IKZF1 [3]: B (80%< substrate protein remaining %≤ 100%)
- substrate protein remaining % WEE1 [4]: B (80%< substrate protein remaining %≤ 100%)
- substrate protein remaining % IKZF3 [5]: B (80%< substrate protein remaining %≤ 100%)
- substrate protein remaining % GSPT1 [6]: A (0% ≤ substrate protein remaining % ≤ 80%)

SMILES: O=C1CCN(N2Cc3cc(CN4CCN(c5ncncn5)CC4)ccc3C2=O)C(=O)N1 [GT-07031, 1-(5-((4-(1,3,5-triazin-2-yl)piperazin-1-yl)methyl)-1-oxoisoindolin-2-yl)dihydropyrimidine-2,4(1H,3H)-dione]
- CK1α substrate protein remaining % [1]: A ("A" is defined as 0% ≤ substrate protein remaining % ≤ 80%)
- IKZF2 substrate protein remaining % [2]: B ("B" is defined as 80%< substrate protein remaining %≤ 100%)
- IKZF1 substrate protein remaining % [3]: A ("A" is defined as 0% ≤ substrate protein remaining % ≤ 80%)
- WEE1 substrate protein remaining % [4]: B ("B" is defined as 80%< substrate protein remaining %≤ 100%)
- IKZF3 substrate protein remaining % [5]: A ("A" is defined as 0% ≤ substrate protein remaining % ≤ 80%)
- GSPT1 substrate protein remaining % [6]: A ("A" is defined as 0% ≤ substrate protein remaining % ≤ 80%)

SMILES: Cc1ccsc1C1=CCN(Cc2ccc3c(c2)C(=O)N(N2CCC(=O)NC2=O)C3=O)CC1 [GT-06434, 2-(2,4-dioxotetrahydropyrimidin-1(2H)-yl)-5-((4-(3-methylthiophen-2-yl)-3,6-dihydropyridin-1(2H)-yl)methyl)isoindoline-1,3-dione]
- CK1α substrate protein remaining % [1]: B ("B" is defined as 80%< substrate protein remaining %≤ 100%)
- IKZF2 substrate protein remaining % [2]: A ("A" is defined as 0% ≤ substrate protein remaining % ≤ 80%)
- IKZF1 substrate protein remaining % [3]: B ("B" is defined as 80%< substrate protein remaining %≤ 100%)
- WEE1 substrate protein remaining % [4]: A ("A" is defined as 0% ≤ substrate protein remaining % ≤ 80%)
- IKZF3 substrate protein remaining % [5]: A ("A" is defined as 0% ≤ substrate protein remaining % ≤ 80%)
- GSPT1 substrate protein remaining % [6]: A ("A" is defined as 0% ≤ substrate protein remaining % ≤ 80%)

SMILES: Cc1nc(C2CCN(Cc3ccc4c(c3)C(=O)N(N3CCC(=O)NC3=O)C4=O)CC2)c2ccsc2n1 [GT-05272, 2-(2,4-dioxotetrahydropyrimidin-1(2H)-yl)-5-((4-(2-methylthieno[2,3-d]pyrimidin-4-yl)piperidin-1-yl)methyl)isoindoline-1,3-dione]
- CK1α substrate protein remaining % [1]: B ("B" is defined as 80%< substrate protein remaining %≤ 100%)
- IKZF2 substrate protein remaining % [2]: A ("A" is defined as 0% ≤ substrate protein remaining % ≤ 80%)
- IKZF1 substrate protein remaining % [3]: B ("B" is defined as 80%< substrate protein remaining %≤ 100%)
- WEE1 substrate protein remaining % [4]: B ("B" is defined as 80%< substrate protein remaining %≤ 100%)
- IKZF3 substrate protein remaining % [5]: B ("B" is defined as 80%< substrate protein remaining %≤ 100%)
- GSPT1 substrate protein remaining % [6]: B ("B" is defined as 80%< substrate protein remaining %≤ 100%)

SMILES: O=C1CCN(N2Cc3cc(CN4CCN(c5cc(F)cc(F)c5)CC4)ccc3C2=O)C(=O)N1 [GT-06782, 1-(5-((4-(3,5-difluorophenyl)piperazin-1-yl)methyl)-1-oxoisoindolin-2-yl)dihydropyrimidine-2,4(1H,3H)-dione]
- CK1α substrate protein remaining % [1]: A ("A" is defined as 0% ≤ substrate protein remaining % ≤ 80%)
- IKZF2 substrate protein remaining % [2]: B ("B" is defined as 80%< substrate protein remaining %≤ 100%)
- IKZF1 substrate protein remaining % [3]: B ("B" is defined as 80%< substrate protein remaining %≤ 100%)
- WEE1 substrate protein remaining % [4]: B ("B" is defined as 80%< substrate protein remaining %≤ 100%)
- IKZF3 substrate protein remaining % [5]: B ("B" is defined as 80%< substrate protein remaining %≤ 100%)
- GSPT1 substrate protein remaining % [6]: A ("A" is defined as 0% ≤ substrate protein remaining % ≤ 80%)
